Measured values taken from US20220378764A1, “[…] OF A GENE ENCODING A CYTOCHROME P450 PROTEIN BY TREATING A HUMAN SUBJECT WITH A NITROXIDE” (priority 2021, published 2022).

Test system: fifteen genes associated with the cytochrome p450 family
Assay: Microarray gene expression in tissue of Tempol-fed mice, overall statement
Format: in vivo
Details: 5 mg/g of food from 14 to 31 months after birth, cardiac tissue, vs control mice
Description: Mice receiving the same food without the addition of Tempol were used as a negative control. At the age of 31 months, the experimental animals were sacrificed and the hearts were surgically removed. The expression of a broad spectrum of genes in the cardiac tissue was assessed using chip-based microarray technology. Such chips are well known in the art and are widely used to assess gene expression.

CC1(C)CC(O)CC(C)(C)N1[O] [Tempol, 4-hydroxy-2,2,6,6-tetramethylpiperidine-1-oxyl]
Expression of fifteen genes associated with the cytochrome p450 family: statistically significant increase in expression
